SMILES strings stand for the structures.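 In this assay, cells in 96-well plates receive the compound at five concentrations for 48 hours. Endpoints are linearly interpolated between the surrounding concentrations. TGI: concentration producing complete growth inhibition.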

Among the test systems are BT-549 breast; COLO 205 colon; DU-145 prostate; HS 578T breast; HT29 colon; IGROV1 ovarian; LOX IMVI melanoma; MCF7 breast; MDA-MB-435; NCI-H226 lung; NCI/ADR-RES ovarian; OVCAR-8 ovarian; RXF 393 renal; SF-295 CNS; SK-OV-3 ovarian; SN12C renal; SNB-19 CNS; SNB-75 CNS; SR leukemia; T-47D breast.
Experiment in all cases: inhibition of tumour cell growth, NCI panel, 48 h

Take `CCn1c(SCC(=O)N/N=C/c2ccccc2)nc2ccccc2c1=O`: the TGI was above 100 µM in the experiment on BT-549 breast; above 100 µM in the experiment on COLO 205 colon; above 100 µM in the experiment on DU-145 prostate; 49.3 µM in the experiment with HS 578T breast; above 100 µM in the experiment with HT29 colon; above 93.1 µM with IGROV1 ovarian. In addition, the TGI is above 100 µM with LOX IMVI melanoma; above 46.4 µM in the experiment on MCF7 breast; 17.6 µM in the experiment with MDA-MB-435; 67.6 µM in the experiment on NCI-H226 lung; above 100 µM with NCI/ADR-RES ovarian; above 82.1 µM with OVCAR-8 ovarian. Moreover, the TGI in the experiment on RXF 393 renal was 27.2 µM; with SF-295 CNS, 33.1 µM; with SK-OV-3 ovarian, 27.1 µM; with SN12C renal, above 100 µM; in the experiment with SNB-19 CNS, 71.3 µM; in the experiment with SNB-75 CNS it was 54.5 µM. The figures for the TGI in the experiment on SR leukemia and in the experiment on T-47D breast were 5.34 µM and above 100 µM, respectively.

In the case of `CCC(C(=O)C(=O)C(CC)P1(=O)OC(C)(C)CN1C(C)(C)C)P1(=O)OC(C)(C)CN1C(C)(C)C` (stereo not given), the TGI in the experiment on BT-549 breast, with COLO 205 colon, with DU-145 prostate, with HS 578T breast, in the experiment with HT29 colon and with IGROV1 ovarian was above 100 µM each time. Besides, the TGI in the experiment with LOX IMVI melanoma, with MCF7 breast, in the experiment on MDA-MB-435, in the experiment on NCI-H226 lung, in the experiment on NCI/ADR-RES ovarian and in the experiment on OVCAR-8 ovarian was above 100 µM throughout. Further, the TGI in the experiment on RXF 393 renal, in the experiment with SF-295 CNS, with SK-OV-3 ovarian, in the experiment with SN12C renal, in the experiment on SNB-19 CNS and in the experiment with SNB-75 CNS was above 100 µM each time. In addition, the TGI in the experiment with SR leukemia and in the experiment with T-47D breast was above 100 µM throughout.

Turning to `Cc1cc(C)nc(NS(=O)(=O)c2ccc(NNc3c4ccccc4nc4c(C(=O)Nc5ccc(S(N)(=O)=O)cc5)cccc34)cc2)n1`, the TGI in the experiment on BT-549 breast, in the experiment with COLO 205 colon, in the experiment on DU-145 prostate, in the experiment with HS 578T breast, in the experiment on HT29 colon and with IGROV1 ovarian was above 100 µM each time. For the same compound, the TGI with LOX IMVI melanoma, in the experiment with MCF7 breast, in the experiment with MDA-MB-435, in the experiment on NCI-H226 lung, in the experiment with NCI/ADR-RES ovarian and in the experiment on OVCAR-8 ovarian was above 100 µM throughout. Besides, the TGI with RXF 393 renal was above 100 µM; with SF-295 CNS it was above 100 µM; in the experiment on SK-OV-3 ovarian it was above 100 µM; in the experiment with SN12C renal, above 100 µM; in the experiment on SNB-19 CNS, above 100 µM; in the experiment on SNB-75 CNS, 33 µM. Also, the TGI in the experiment on SR leukemia was 73.3 µM; with T-47D breast, above 100 µM.

For `CC(C)(C)OCC1NC(=O)[C@@H]2Cc3c([nH]c4ccccc34)C(c3ccccc3)N2C1=O` (stereo not given in full), the TGI with BT-549 breast, in the experiment on COLO 205 colon, in the experiment on DU-145 prostate, in the experiment with HS 578T breast, in the experiment with HT29 colon and in the experiment with IGROV1 ovarian was above 50 µM in each case. Besides, the TGI with LOX IMVI melanoma, in the experiment with MCF7 breast, with MDA-MB-435, in the experiment with NCI-H226 lung, in the experiment on NCI/ADR-RES ovarian and in the experiment on OVCAR-8 ovarian was above 50 µM each time. Moreover, the TGI in the experiment with RXF 393 renal, with SF-295 CNS, in the experiment on SK-OV-3 ovarian, in the experiment with SN12C renal, in the experiment with SNB-19 CNS and in the experiment with SNB-75 CNS was above 50 µM in each case. In addition, the figures for the TGI with SR leukemia and in the experiment with T-47D breast were above 33 µM and above 50 µM, respectively.

Take `CC1(C)CCc2c(c(N=Nc3ccc(S(N)(=O)=O)cc3)c3ccccc3c2O)O1`: the TGI in the experiment on BT-549 breast is 29.1 µM; with COLO 205 colon, 44.9 µM; in the experiment with DU-145 prostate it was 25 µM; with HS 578T breast, above 100 µM; in the experiment with HT29 colon, 38.1 µM; in the experiment on IGROV1 ovarian, 40.1 µM. For the same compound, the TGI was determined as 21.3 µM with LOX IMVI melanoma; 33.1 µM in the experiment on MCF7 breast; 22.5 µM in the experiment with MDA-MB-435; 57.5 µM with NCI-H226 lung; 59.9 µM in the experiment on NCI/ADR-RES ovarian; 28.7 µM in the experiment with OVCAR-8 ovarian. The TGI worked out at 24.6 µM in the experiment with RXF 393 renal; 24 µM in the experiment on SF-295 CNS; 16.2 µM in the experiment with SK-OV-3 ovarian; 23.2 µM in the experiment with SN12C renal; 39 µM in the experiment on SNB-19 CNS; 16.6 µM with SNB-75 CNS. Further, the TGI in the experiment on SR leukemia was determined as 58.3 µM; with T-47D breast, 49.3 µM.

Consider `c1ccc(C2=NCCN2)c(C2=NCCN2)c1`, for which the TGI in the experiment with BT-549 breast, in the experiment on COLO 205 colon, with DU-145 prostate, in the experiment on HS 578T breast, with HT29 colon and with IGROV1 ovarian was above 100 µM each time. The TGI in the experiment on LOX IMVI melanoma, in the experiment with MCF7 breast, with MDA-MB-435, with NCI-H226 lung, in the experiment on NCI/ADR-RES ovarian and with OVCAR-8 ovarian was above 100 µM in each case. Also, the TGI with RXF 393 renal, with SF-295 CNS, with SK-OV-3 ovarian, in the experiment with SN12C renal, in the experiment on SNB-19 CNS and in the experiment on SNB-75 CNS was above 100 µM throughout. Moreover, the TGI in the experiment with SR leukemia and in the experiment on T-47D breast was above 100 µM in each case.

Turning to `Cc1c(CCN2CCOCC2)c(N2CCOCC2)n2c(nc3ccccc32)c1C#N`, the TGI in the experiment on BT-549 breast, with COLO 205 colon, with DU-145 prostate, in the experiment with HS 578T breast, with HT29 colon and in the experiment with IGROV1 ovarian was above 10 µM throughout. Besides, the TGI in the experiment on LOX IMVI melanoma, in the experiment with MCF7 breast, in the experiment on MDA-MB-435, with NCI-H226 lung, in the experiment on NCI/ADR-RES ovarian and in the experiment on OVCAR-8 ovarian was above 10 µM in each case. In addition, the TGI in the experiment on RXF 393 renal, in the experiment on SF-295 CNS, with SK-OV-3 ovarian, in the experiment with SN12C renal, in the experiment on SNB-19 CNS and in the experiment with SNB-75 CNS was above 10 µM in each case. Also, the TGI in the experiment with SR leukemia and with T-47D breast was above 10 µM each time.

(Values after PubChem BioAssay (NCI).)
